Structures can show the parent of a compound that is named as a salt.

The test system of series [1] is MEK1.
Protocol: ERK2 nucleocytoplasmic shuttling. (a) HEK293ET cells co-expressing C-MEK1-DD and EGFP-ERK2 were illuminated (2 s, 365 nm, 1 mW/cm^2), then 8 minutes after illumination, U0126 (10 μM) was added to block the activity of photoactivated C-MEK1-DD and unveil EGFP-ERK2 efflux from the nucleus. […] Scale bars represent 5 μm. (b) The graph presents the normalized F(n/c) as a function of time after illumination (mean±SD of ten representative cells). The arrow indicates the time when U0126 was added.
To unveil this compensating process and visualize ERK2 nuclear export, we induced EGFP-ERK2 nuclear translocation by C-MEK1-DD photoactivation, and then blocked MEK1-induced ERK2 nuclear translocation by addition of the MEK1 inhibitor U0126.
Live cell imaging—Live cells grown in μ-Dish (Ibidi) were imaged at room temperature with an inverted Zeiss LSM 710 Laser Scanning Microscope equipped with a Plan Apochromat 63×/1.4 oil immersion objective. […] The mean nuclear (Fn) and cytoplasmic (Fc) fluorescence intensities were quantified using ImageJ software to enable the F(n/c) ratio to be determined according to the formula: F(n/c)=(Fn−Fb)/(Fc−Fb), where Fb is the mean background fluorescence intensity.
Series [2] has as its system MEK1. The conditions noted are these: C-MEK1-ΔN cells, 10 μM U0126 for 30 min before illumination.
Protocol: (a) HEK293ET cells co-transfected with plasmids encoding PCKRS, pyrrolysyl tRNACUA, C-MEK1-ΔN-HA and EGFP-ERK2 (either TEY, lanes 7 and 8; or AAA, lanes 9 and 10) were grown in medium supplemented with 2 mM of amino acid 1 (lanes 8 and 10) or without (lanes 7 and 9) for 24 h. […] (b) HEK293ET cells co-transfected with plasmids encoding PCKRS, pyrrolysyl tRNACUA, EGFP-ERK2 and either A-MEK1-ΔN-HA (lane 2), or D-MEK1-ΔN-HA (lanes 3-6), or C-MEK1-ΔN-HA (lanes 7-10) were grown in medium supplemented with 2 mM of 1 and 0.1% FBS for 24 h. Cells expressing D-MEK1-ΔN-HA and C-MEK1-ΔN-HA were illuminated with a 365 nm LED lamp for 60 s. Cells were lysed 1, 10 and 60 min after illumination. (c) HEK293ET cells co-transfected with plasmids encoding PCKRS, pyrrolysyl tRNACUA, EGFP-ERK2 and either A-MEK1-ΔN-HA (lane 2), or D-MEK1-ΔN-HA (lanes 3, 5, 6, 9, 10, 13, 14, 17, 18) or C-MEK1-ΔN-HA (lanes 4, 7, 8, 11, 12, 15, 16, 19, 20) were grown in medium supplemented with 2 mM of amino acid 1 and 0.1% FBS for 24 h. […]
Immunoblotting—Cells were washed with ice-cold phosphate buffer saline (PBS), then lysed with ice-cold universal lysis buffer (Roche) supplemented with protease inhibitors cocktail (Roche), 1 mM sodium vanadate, 5 mM sodium fluoride and 10 mM EDTA. Samples were resolved by SDS-PAGE and analyzed by immunoblotting with appropriate antibodies after transferring to nitrocellulose membranes.
Another series deals with sfGFP-his6. In words: Expression of sfGFP-his6 with unnatural amino acid at amber codon 145. The class given is cell-based, E. coli. The conditions noted are these: PCKRS/PyltRNACUA pair, 1 (5 mM), amber codon at position 145. Here is the method:
FIG. 3—A. anti His-tag immunoblot of cell extracts from E. coli cells expressing PCKRS/PyltRNACUA and myoglobin with an amber codon at position 4 (pMyo4TAGHis6) in the presence or absence of 1 mM photocaged lysine 1. B. Coomassie stained gel of Ni-NTA purified sfGFP-his6 from cells containing either the MbPylRS/PyltRNACUA pair and grown with ε-Boc-lysine (BocK) (1 mM), or the PCKRS/PyltRNACUA pair and grown with 1 (5 mM). The unnatural amino acid was introduced into sfGFP in response to an amber codon at position 145. […] C. […] A second peak corresponding to myoglobin with a free lysine is also detected (peak B; obtained mass 18396 Da, expected mass 18395.7 Da). […] D. MS/MS fragmentation of tryptic peptide derived from sfGFP(145-1) (the peptide sequence is shown above the spectrum; MH^+ peptide mass 2145.972 Da). The spectrum confirms the incorporation of 1 at codon 145. The fragmentation sites are illustrated above the spectrum. […] E. ESI-MS analysis of myoglobin produced by PCKRS/PyltRNACUA (with 2 mM 1) after photolysis for 0 min, 1 min and 5 min with 365 nm light (A: caged protein mass 18633.0±1.8 Da, expected mass 18631.7 Da; B: uncaged protein mass 18395.4±0.7 Da, expected mass 18395.7).
To express myoglobin with an incorporated unnatural amino acid, we transformed E. coli DH10B cells with pBKamp-PCKRS and pMyo4TAGPylT-his6. […]

Series [3] is described as follows: Decaging of myoglobin containing 1 by 365 nm photolysis, ESI-MS. The class given is physicochemical. The conditions noted are these: myoglobin containing 1, in vitro. The method, then: FIG. 3—A. anti His-tag immunoblot of cell extracts from E. coli cells expressing PCKRS/PyltRNACUA and myoglobin with an amber codon at position 4 (pMyo4TAGHis6) in the presence or absence of 1 mM photocaged lysine 1. B. Coomassie stained gel of Ni-NTA purified sfGFP-his6 from cells containing either the MbPylRS/PyltRNACUA pair and grown with ε-Boc-lysine (BocK) (1 mM), or the PCKRS/PyltRNACUA pair and grown with 1 (5 mM). The unnatural amino acid was introduced into sfGFP in response to an amber codon at position 145. […] C. […] A second peak corresponding to myoglobin with a free lysine is also detected (peak B; obtained mass 18396 Da, expected mass 18395.7 Da). […] D. MS/MS fragmentation of tryptic peptide derived from sfGFP(145-1) (the peptide sequence is shown above the spectrum; MH^+ peptide mass 2145.972 Da). […]
Protein total mass was determined on an LCT time-of-flight mass spectrometer with electrospray ionization (ESI, Micromass). […] Theoretical masses of wild-type proteins were calculated using Protparam (http://us.expasy.org/tools/protparam.html), and theoretical masses for unnatural amino acid containing proteins were adjusted manually.
For the analysis of the uncaging process, purified myoglobin was photolysed at 365 nm with a high power LED source module at 365 nm (Black-led-365, Prizmatix). Protein total mass was then determined as described above.

The test system of series [4] is HEK293 cells. Put plainly: Amber suppression of mCherry-TAG-egfp-ha reporter by PCKRS/PyltRNACUA. Particulars: PCKRS/PyltRNACUA pair, 1 mM, Western blot, versus hTyrtRNACUA. The class given is cell-based, human. The method, then: Adherent human embryonic kidney (HEK)-293 cells were cultured at 37° C. in a 5% CO2 atmosphere in DMEM+GlutaMAX-1 medium (Gibco) supplemented with 10% FBS and 1× pen-strep solution. Cells were transiently transfected with Genejuice (Novagen) according to the manufacturer's protocol. Double transfections were performed using equal amount of both plasmids. Before transfection, medium was replaced by fresh antibiotic-free medium supplemented, when necessary, with the unnatural amino acid (see figure legends for concentrations). Cells were analyzed 24 h after transfection. For western blot analysis, cells were washed with cold PBS, then lysed with universal lysis buffer (Roche) at 4° C. for 10 min. Western Blots were performed using antibodies against HA-tag (Sigma), Flag-tag (Cell signaling), Ds-Red (Clontech) or p53 (Abcam).
For imaging cells expressing mCherry-TAG-EGFP-HA, cells were seeded and transfected in 24-well plates. Laser-scanning confocal microscopy was performed using a Bio-Rad Radiance 2100 system mounted on a Nikon Eclipse TE300 inverted microscope equipped with a Plan Fluor ELWD 20×/0.45 objective. Fluorescence emission was measured between 515-530 nm for EGFP (excitation wavelength: 488 nm) and above 560 nm for mCherry (excitation wavelength: 543 nm).
A general note: Immunoblotting shows a protein as a band on a membrane.

Series [5] has as its system HEK293 cells. Put plainly: Photo-control of p53-EGFP nuclear import, live cell imaging. The conditions noted are these: photolysis 5 s, 365 nm, 1.2 mW/cm^2; amino acid at position 305 of p53. The class given is cell-based, human.
Protocol: Fluorescence confocal micrographs showing the cellular localization of the EGFP fusions of wild-type p53, p53-K305A. D. Confocal micrographs showing the cellular localization of the EGFP fusions before and 50 min after photolysis (5 s; 365 nm; 1.2 mW/cm^2).
For live cell imaging, cells were seeded and transfected in μ-Dish (Ibidi). Live cells were imaged at room temperature with a Zeiss LSM 710 Laser Scanning Microscope equipped with a Plan Apochromat 63×/1.4 oil immersion objective. […] The mean nuclear (Fn) and cytoplasmic (Fc) fluorescence intensities were quantified using ImageJ software to enable the F(n/c) ratio to be determined according to the formula: F(n/c)=(Fn−Fb)/(Fc−Fb), where Fb is the mean background fluorescence intensity.
A further series deals with MAP kinase pathway. In words: EGFP-ERK2 nuclear translocation upon EGF stimulation. Particulars: wild-type MEK1. The class given is cell-based, human. The method, then:
FIG. 16 EGFP-ERK2 nuclear translocation upon EGF stimulation. (a) Montage showing EGFP-ERK2 sub-cellular fluorescence at different time points after activation of co-expressed wt-MEK1 by addition of 100 ng/ml EGF. Scale bars represent 5 μm.
When cells expressing wild-type MEK1 and EGFP-ERK2 are stimulated with 100 ng/ml of epidermal growth factor (EGF) the entire MAP kinase pathway is activated and EGFP-ERK2 is translocated to the nucleus. […] We observe substantial cell-to-cell variability in both the t1/2 for import and the maximal ratio of nuclear to cytoplasmic EGFP-ERK2, and, as previously reported (Cohen-Saidon et al., 2009), we observe less variability in the timing of nuclear import than in the fraction of ERK2 in the nucleus following stimulation (Cohen-Saidon et al., 2009) (FIG. 16c,d). The nuclear accumulation of EGFP-ERK2 peaks and then dissipates to pre-stimulus levels, a well known effect in cellular systems known as exact adaptation (Cohen-Saidon et al., 2009). This effect is not understood in molecular detail for EGF signalling, but must involve cellular processes that compensate for EGF stimulation at some—as yet undefined—point or points in the pathway. […]

Another series relates to EGFP-ERK2. In words: EGFP-ERK2 nuclear translocation upon photo-activation of caged MEK1, live cell imaging. The class given is cell-based, human. Particulars: resting cells co-expressing EGFP-ERK2, illuminated. The method, then:
Cell culture and transfection—Human embryonic kidney 293ET cells were grown at 37° C. in 5% CO2 atmosphere in DMEM+GlutaMAX-1 medium (Gibco) supplemented with 10% fetal bovine serum (FBS) and 1× pen-strep solution for 24 hours before transfection. Cells were transiently transfected with Genejuice (Novagen) according to the manufacturer's protocol. Cells were serum-starved (DMEM with 0.1% FBS) and grown with 2 mM of the photocaged lysine 1 for 24 h before analysis. Growth medium was replaced with fresh 1-free DMEM supplemented with 0.1% FBS before photo-activation experiments.

For series [6], the system named is EGFP-ERK2 and endogenous ERK1/2. In words: Immunoblot of ERK, p90RSK and Elk-1 phosphorylation upon photo-activation of caged MEK1. The class given is cell-based, human. The text has this:
MEK1 is highly specific for the downstream extracellular signal-regulated protein kinases ERK1 and ERK2, and has no other known substrates (Shaul and Seger, 2007). MEK1 phosphorylates two regulatory residues in ERK1/2, a threonine and a tyrosine, both part of a conserved Thr-Glu-Tyr (TEY) motif (Payne et al., 1991). To verify that the introduction of the photocaged lysine 1 prevents kinase activity, C-MEK1-ΔN was co-expressed with ERK2 fused to an enhanced green fluorescence protein (EGFP-ERK2) in resting HEK293ET cells.
To activate C-MEK1-ΔN we illuminated cells producing the protein for one minute using a 365 nm light-emitting diode (LED) lamp placed underneath the culture plate. This method allows us to illuminate a sufficient number of cells for western blot analysis with monochromatic light that avoids sample heating. […] We observed more phosphorylated EGFP-ERK2 than phosphorylated endogenous ERK1/2. This is consistent with the fact that only a subset of cells contain EGFP-ERK2 and C-MEK1-ΔN, via transfection, while essentially all cells contain endogenous ERK1/2. […] EGFP-ERK2 levels in transfected cells are lower-than or equal to that of the endogenous ERKs. […]

As to `N#CC(=C(/N)Sc1ccccc1N)/C(C#N)=C(\N)Sc1ccccc1N` [U0126], the “t1/2 of loss of EGFP nuclear fluorescence” value with MEK1 [1] (10 μM added 8 min after C-MEK1-DD photoactivation) is reported as below 3 min. The “effect on EGFP-ERK2 nuclear accumulation” value with MEK1 [1] (10 μM added before illumination, C-MEK1-DD cells) is “significantly blocked nuclear accumulation”. In addition, the “increase of endogenous phosphorylated p90RSK and Elk-1 after illumination” value in the series on MEK1 [2] is on record as “not observed”.

As for `CC(OC(=O)NCCCC[C@H](N)C(=O)O)c1cc2c(cc1[N+](=O)[O-])OCO2` (stereo partly drawn) [compound 1, (2S)-2-Amino-6-{([1-(6-nitrobenzo[d][1,3]dioxol-5-yl)ethoxy]carbonylamino}hexanoic acid TFA salt], the “yield of sfGFP-his6 obtained by incorporation” value with sfGFP-his6 is on record as 1 mg/L. The “decaging upon irradiation with 365 nm light” value in series [3] is listed as “efficiently decaged”. The efficiency of incorporation result with HEK293 cells [4] is on record as “comparable to the efficiency of incorporation of tyrosine”.

As for `N[C@@H](Cc1ccc(O)cc1)C(=O)O` [tyrosine], the “p53 localization following photolysis” value with HEK293 cells [5] is given as “did not localize to the nucleus”.

On to “EGF: Recombinant human epidermal growth factor, purchased from Gibco”, for which the “lag phase prior to rapid nuclear accumulation of EGFP-ERK2” value in the series with MAP kinase pathway (100 ng/ml EGF) amounted to 3 min. For the same molecule, the “t1/2 of EGFP-ERK2 nuclear translocation” value with MAP kinase pathway (EGF-stimulated activation of the whole pathway, 100 ng/ml) was 4.5 min.

With “wt-MEK1: wild-type MEK1 [reference compound]”, the “EGFP-ERK2 nuclear translocation upon illumination” value in the series with EGFP-ERK2 is recorded as “no nuclear translocation was observed”.

B1: D-MEK1-ΔN: dead MEK1 with deletion Δ30-49 and mutation K97M (protein, UniProt Q02750 1-393, looked up, variant del30-49 K97M)
Dual specificity …: MPKKKPTPIQLNPAPDGSAVNGTSSAETNLEAFLTQKQKVGELKDDDFEKISELGAGNGGVVFKVSHKPSGLVMARMLIHLEIKPAIRNQIIRELQVLHECNSPYIVGFYGAFYSDGEISICMEHMDGGSLDQVLKKAGRIPEQILGKVSIAVIKGLTYLREKHKIMHRDVKPSNILVNSRGEIKLCDFGVSGQLIDSMANSFVGTRSYMSPERLQGTHYSVQSDIWSMGLSLVEMAVGRYPIPPPDAKELELMFGCQVEGDAAETPPRPRTPGRPLSSYGMDSRPPMAIFELLDYIVNEPPPKLPSGVFSLEFQDFVNKCLIKNPAERADLKQLMVHAFIKRSDAEEVDFAGWLCSTIGLNQPSTPTHAAGV
modifications: HA tag
notes: dead MEK1 with deletion Δ30-49 and mutation K97M
With B1, the “phosphorylation of EGFP-ERK2 or endogenous ERK1/2 after illumination” value in [6] (365 nm LED illumination) is listed as “no detectable phosphorylation”. Also, the “endogenous phosphorylated p90RSK and Elk-1 after illumination” value in [6] (resting cells co-expressing EGFP-ERK2, 60 s 365 nm) is recorded as “not observed”.

B2: D-MEK1-DD: catalytically dead MEK1 mutant with S218D, S222D and K97M (protein, UniProt Q02750 1-393, looked up, variant S218D S222D K97M)
Dual specificity …: MPKKKPTPIQLNPAPDGSAVNGTSSAETNLEALQKKLEELELDEQQRKRLEAFLTQKQKVGELKDDDFEKISELGAGNGGVVFKVSHKPSGLVMARMLIHLEIKPAIRNQIIRELQVLHECNSPYIVGFYGAFYSDGEISICMEHMDGGSLDQVLKKAGRIPEQILGKVSIAVIKGLTYLREKHKIMHRDVKPSNILVNSRGEIKLCDFGVSGQLIDDMANDFVGTRSYMSPERLQGTHYSVQSDIWSMGLSLVEMAVGRYPIPPPDAKELELMFGCQVEGDAAETPPRPRTPGRPLSSYGMDSRPPMAIFELLDYIVNEPPPKLPSGVFSLEFQDFVNKCLIKNPAERADLKQLMVHAFIKRSDAEEVDFAGWLCSTIGLNQPSTPTHAAGV
modifications: HA tag
notes: catalytically dead MEK1 mutant with S218D, S222D and K97M
Turning to B2, the “EGFP-ERK2 nuclear translocation upon illumination” value with EGFP-ERK2 is “no nuclear translocation was observed”.
